Values joined by “and” are separate entries in the source; they are usually repeats but may differ in a detail not shown here. Equal entries are not always repeated. Where two headings read alike, the source gives them in different places.
How the values were obtained:
HCT116 BRCA2−/− cells = experiment: cell viability, resazurin reduction assay, HCT116 BRCA2-/-; details: for IC50: read-out: IC50-values HCT116 BRCA2−/−
Experimental: (§1) To assess the cytotoxicity of newly developed PARP inhibitors, cells were cultivated in translucent 96-well plates overnight and treated with PARP inhibitors or cytostatic drugs for 72 h. For the assessment of synergistic activity, cells were pretreated with the inhibitors for 2 h, before the inhibitor or cytostatic drug was added. Cell viability was assessed by the resazurin reduction assay (RRA) as described previously [41], and fluorescence was measured using a Spark® Multi-well reader (Tecan, Crailsheim, Germany). IC50 values were calculated using GraphPad Prism 9.0 software (GraphPad Software Inc., Boston, MA, USA). To this end, concentrations were transformed into the log scale, plotted against the cell viability and the curve was fitted by nonlinear regression with variable slope, providing the IC50 values.

HCT116 PARP-1−/− cells = experiment: cell viability, resazurin reduction assay, HCT116 PARP-1-/-; details: for higher sensitivity of HCT116 PARP-1−/− than PARP-1+/+: from IC50 values of Table 1; for IC50: read-out: IC50-values HCT116 PARP1−/−
Experimental: as §1

DLD-1 ATRs/s cells = experiment: cell viability, resazurin reduction assay, DLD-1 ATRs/s; details: for IC50: read-out: IC50-values DLD-1 ATRs/s
Experimental: (§2) To assess the cytotoxicity of newly developed PARP inhibitors, cells were cultivated in translucent 96-well plates overnight and treated with PARP inhibitors or cytostatic drugs for 72 h. […] Cell viability was assessed by the resazurin reduction assay (RRA) as described previously [41], and fluorescence was measured using a Spark® Multi-well reader (Tecan, Crailsheim, Germany). IC50 values were calculated using GraphPad Prism 9.0 software (GraphPad Software Inc., Boston, MA, USA). To this end, concentrations were transformed into the log scale, plotted against the cell viability and the curve was fitted by nonlinear regression with variable slope, providing the IC50 values.

HCT116 PARP-1+/+ cells = experiment: cell viability, resazurin reduction assay, HCT116 PARP-1+/+; details: for IC50: read-out: IC50-values HCT116 PARP1+/+
Experimental: as §1

HCT116 WT cells = experiment: cell viability, resazurin reduction assay, HCT116 WT; details: for IC50: read-out: IC50-values HCT116 WT
Experimental: as §2

[1] = test system: human colonic epithelial cells (HCEC); experiment: cell viability, resazurin reduction assay, HCEC; details: 72 h; for IC50: read-out: IC50-values HCEC
Experimental: as §1

DLD-1 WT cells = experiment: cell viability, resazurin reduction assay, DLD-1 WT; details: for IC50: read-out: IC50-values DLD-1 WT
Experimental: as §2

[2] = test system: γH2AX formation in HCT116 WT cells; experiment: γH2AX Western blot in HCT116 WT cells; details: X17613 50 µM or IT 0.25 µM, 24 h
Experimental: Quantification of chromatin-trapped PARP-1 was performed as described elsewhere [42]. Briefly, HCT116 cells were harvested, and pellets were lysed in buffer containing 150 mM KCl, 2.5 mM MgCl2, 50 mM HEPES pH 7.8, 5 mM EDTA pH 8, 3 mM dithiothreitol (DTT), 10% glycerol, 0.5% Triton X-100, and freshly added protease inhibitor cocktail (Roche) for 15 min on ice. The chromatin-bound protein fraction was isolated by centrifugation at 4 °C for 15 min and 16.000× g. After transferring the soluble fraction, the chromatin-containing pellet was washed twice in lysis buffer and sonicated for 3 min. The soluble and chromatin fractions were mixed with self-made 5× Laemmli buffer (200 mM TRIS pH 6.8, 40% glycerol, 8% SDS, 4 % ß-mercaptoethanol, 0.08% Bromphenol Blue) and incubated at 95 °C for 10 min. Samples were then separated by SDS-PAGE followed by Western blot analysis essentially as described previously [43]. For the analysis of γH2AX, cells were directly harvested in 1× Laemmli buffer, incubated at 95 °C for 5 min, and subjected to SDS-PAGE and subsequent Western blot analysis [44]. […] The proteins of interest were detected using a c300 chemiluminescence imager (Azure Biosystems, Dublin, CA, USA). Densitometric image analysis was conducted by applying the software AzureSpot version 2.0.062 (Azure Biosystems, USA). The signal intensity (e.g., PARP-1 or γH2AX) of each lane was quantified and subsequently normalized to the respective loading control as indicated in the figure legends, which was analyzed in each experiment. […]

Caco-2 cells = experiment: cell viability, resazurin reduction assay, Caco-2; details: for IC50: Homo sapiens, read-out: IC50-values Caco-2
Experimental: as §1

[3] = test system: γH2AX formation in HCT116 BRCA2−/− cells; experiment: γH2AX Western blot in HCT116 BRCA2-/- cells; details: IT 0.25 µM, 24 h, compared to WT
Experimental: (§3) Quantification of chromatin-trapped PARP-1 was performed as described elsewhere [42]. Briefly, HCT116 cells were harvested, and pellets were lysed in buffer containing 150 mM KCl, 2.5 mM MgCl2, 50 mM HEPES pH 7.8, 5 mM EDTA pH 8, 3 mM dithiothreitol (DTT), 10% glycerol, 0.5% Triton X-100, and freshly added protease inhibitor cocktail (Roche) for 15 min on ice. The chromatin-bound protein fraction was isolated by centrifugation at 4 °C for 15 min and 16.000× g. After transferring the soluble fraction, the chromatin-containing pellet was washed twice in lysis buffer and sonicated for 3 min. […] The proteins of interest were detected using a c300 chemiluminescence imager (Azure Biosystems, Dublin, CA, USA). […] The signal intensity (e.g., PARP-1 or γH2AX) of each lane was quantified and subsequently normalized to the respective loading control as indicated in the figure legends, which was analyzed in each experiment. […]

PARP-1 [4] = target: T1, PARP-1 (Homo sapiens, UniProt P09874); experiment: chemiluminescence-based PARP-1 assay kit (recombinant enzyme); details: IC50 PARP-1 screening assay kit, recombinant PARP-1, 1 h RT, n = 2
T1 sequence (P09874 whole entry): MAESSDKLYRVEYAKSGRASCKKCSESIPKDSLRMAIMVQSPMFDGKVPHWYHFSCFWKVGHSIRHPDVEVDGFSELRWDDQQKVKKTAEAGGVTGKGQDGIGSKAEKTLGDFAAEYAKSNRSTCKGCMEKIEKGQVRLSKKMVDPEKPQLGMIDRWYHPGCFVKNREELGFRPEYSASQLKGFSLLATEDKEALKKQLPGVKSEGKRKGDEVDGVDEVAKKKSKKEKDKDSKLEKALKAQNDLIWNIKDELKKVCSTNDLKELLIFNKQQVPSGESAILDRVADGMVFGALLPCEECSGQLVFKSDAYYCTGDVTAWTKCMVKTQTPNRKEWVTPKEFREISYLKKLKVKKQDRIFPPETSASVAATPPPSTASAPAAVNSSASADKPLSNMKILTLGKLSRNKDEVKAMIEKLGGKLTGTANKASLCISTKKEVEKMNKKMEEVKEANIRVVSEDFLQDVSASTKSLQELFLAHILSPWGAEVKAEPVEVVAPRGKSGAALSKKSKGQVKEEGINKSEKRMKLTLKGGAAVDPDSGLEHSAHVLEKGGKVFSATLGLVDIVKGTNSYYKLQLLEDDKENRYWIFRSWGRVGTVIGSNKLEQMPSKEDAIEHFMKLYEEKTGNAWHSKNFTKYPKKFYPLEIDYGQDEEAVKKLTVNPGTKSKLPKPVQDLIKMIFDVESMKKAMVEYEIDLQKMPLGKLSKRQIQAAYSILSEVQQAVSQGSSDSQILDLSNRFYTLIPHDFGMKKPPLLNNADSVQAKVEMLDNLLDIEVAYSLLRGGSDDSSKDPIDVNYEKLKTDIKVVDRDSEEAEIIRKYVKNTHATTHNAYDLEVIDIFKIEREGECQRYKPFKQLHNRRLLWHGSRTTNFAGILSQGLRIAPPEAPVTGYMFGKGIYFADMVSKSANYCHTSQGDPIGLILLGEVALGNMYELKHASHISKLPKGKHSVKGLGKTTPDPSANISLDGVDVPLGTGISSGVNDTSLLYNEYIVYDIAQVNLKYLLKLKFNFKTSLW
Text: Twelve compounds were screened regarding their ability to inhibit PARP-1 enzyme activity in vitro. Therefore, we utilized a chemiluminescence-based PARP-1 assay kit (BPS Bioscience, San Diego, CA, USA) and performed two independent experiments according to the manufacturer’s instructions. Briefly, non-transparent 96-well plates were coated with histones overnight. […] After adding activated DNA and biotinylated NAD^+, the ADP-ribosylation reaction was initiated by the addition of PARP-1 enzyme and incubated at RT for 1 h. Quantification of biotinylated PAR was conducted by using Streptavidin–HRP and subsequent ECL-based detection of chemiluminescence, applying a Spark® multiplate reader (Tecan, Crailsheim, Germany).

PARP-1 [5] = target: T1, PARP-1; experiment: chromatin retention assay (PARP-1 trapping) in Caco-2 cells; details: Caco-2, MMS 1 mM 1 h with inhibitor
Experimental: as §3

PARP-1 [6] = target: T1, PARP-1; experiment: chromatin retention assay (PARP-1 trapping) in HCT116 cells; details: HCT116, MMS 1 mM 1 h with inhibitor
Experimental: as §3

[7] = test system: H2O2-induced PAR formation (PARP-1 activity) in HCT116 cells; experiment: PAR immunofluorescence: H2O2-induced PAR formation in HCT116 cells; type: cell-based, human; details: for IC50: Homo sapiens, HCT-116, 2 h pretreatment, 1 mM H2O2 5 min, unit inferred, read-out: IC50 PAR formation in HCT116 cells (Figure A3A); for PAR signal: concentration of 100 nM; for PAR signal / PAR formation: H2O2-induced; for PAR formation: 10 µM / highest concentration
Experimental: Cells lines were re-authenticated by p53, PARP-1, ATR, and BRCA2 immunoblotting, by their characteristic differential response to genotoxic agents and their typical cell morphology. HCT116, HCT116 BRCA2^−/−, DLD-1 ATR^+/+ and DLD-1 ATR^s/s cells were maintained in DMEM, whereas HCT116 PARP-1^+/+ and HCT116 PARP-1^−/− cells were maintained in RPMI1640 containing 10% FCS and 1% penicillin/streptomycin in a humidified atmosphere at 37 °C and 5% CO2. Caco-2 cells were cultured in MEM with 10% FCS, 1% penicillin/streptomycin, and nonessential amino acids. […] The media and supplements were obtained from PAN-Biotech (Aidenbach, Germany) and Thermo Fisher Scientific (Darmstadt, Germany). Cell culture was frequently tested for contamination with mycoplasma by PCR using the Venor® GeM Classic kit (Minerva Biolabs, Berlin, Germany) and immunofluorescence microscopy with nuclear staining. […] Cells were exposed for 1 h for the quantification of PARP-1 trapping or 2 h for assessing the inhibitory potential by confocal fluorescence microscopy. […] If the PARPi treatment was conducted in combination with cytostatic drugs for 24 h (γH2AX Western blot analysis) or 72 h (cytotoxicity testing), the PARPi was added 2 h prior.
The activity of potential PARP inhibitors was tested in a cell model using immunofluorescence-based detection of PAR essentially as reported previously. HCT116 cells were seeded in Ibidi 12-well chamber slides and cultivated until they reached 70% confluence. Induction of PARylation was achieved by adding 1 mM H2O2 in PBS/1 mM MgCl2 for 5 min at 37 °C. Cells were washed with PBS/1 mM MgCl2 and fixed by adding 4% PFA at RT. After 20 min, cells were washed with PBS/100 mM glycine for 1 min and permeabilized with PBS/0.3% Triton X-100 for 3 min. Blocking of the cells was conducted by adding PBS/0.05% Tween containing 5% powdered milk for 1 h at RT. […] Cells were washed and an Alexa488-coupled secondary antibody was added for 1 h at RT. The slides were mounted with VectaShield containing DAPI and analyzed by confocal microscopy using a Zeiss Axio Observer 7 microscope (Oberkochen, Germany) equipped with a 63× oil objective (Plan-Apochromat 63×/1.40 DIC M27) and a LSM900 confocal laser scanner (Zeiss, Oberkochen, Germany). Images were analyzed using Zeiss Zen software version 3.4 and ImageJ v1.53t (NIH, Bethesda, MD, USA). Briefly, nuclei were identified based on the DAPI signal and marked as regions of interest (ROI). Subsequently, the mean PAR signal in the identified ROI was quantified in each image and exported for further analysis. For the individual experiments, the mean PAR intensity was averaged for each treatment group and the control was set to 100%. Only images with a minimum of 4 cells were included in the analysis and at least 5 images were assessed per treatment group. The experiments were conducted in at least 3 biological replicates. To derive IC50 concentrations, relative PAR levels of the experiments were transferred to GraphPad Prism 9.0 Software (GraphPad Software Inc., Boston, MA, USA) for a nonlinear regression analysis applying a three-parameter model.

O=C1[O][Pt]2([NH][C@@H]3CCCC[C@H]3[NH]2)[O]C1=O [OXA, oxaliplatin]
IC50 (HCT116 BRCA2−/− cells; 72 h, RRA): 0.25 µM
higher sensitivity of HCT116 PARP-1−/− than PARP-1+/+ (HCT116 PARP-1−/− cells): 2.5–3 fold
IC50 (HCT116 PARP-1−/− cells; 72 h, RRA): 0.28 µM
IC50 (DLD-1 ATRs/s cells; 72 h, RRA): 9.08 µM
IC50 (HCT116 PARP-1+/+ cells; 72 h, RRA): 0.71 µM
IC50 (HCT116 WT cells; 72 h, RRA): 1.19 µM
IC50 ([1]; RRA): 40.7 µM
IC50 (DLD-1 WT cells; 72 h, RRA): 8.77 µM

CCc1c2c(nc3ccc(OC(=O)N4CCC(N5CCCCC5)CC4)cc13)-c1cc3c(c(=O)n1C2)COC(=O)[C@]3(O)CC [IT, irinotecan]
IC50 (HCT116 BRCA2−/− cells; Homo sapiens, HCT-116, 72 h): 0.16 µM
IC50 (HCT116 PARP-1−/− cells; Homo sapiens, HCT-116, 72 h): 0.35 µM
higher sensitivity of HCT116 PARP-1−/− than PARP-1+/+ (HCT116 PARP-1−/− cells): 2.5–3 fold
IC50 (DLD-1 ATRs/s cells; Homo sapiens, DLD-1, 72 h): 2.99 µM
γH2AX, mono-treatment [2]: significant induction of γH2AX
IC50 (HCT116 PARP-1+/+ cells; Homo sapiens, HCT-116, 72 h): 0.93 µM
IC50 (HCT116 WT cells; Homo sapiens, HCT-116, 72 h): 1.28 µM
IC50 ([1]; Homo sapiens, HCEC): 2.95 µM
IC50 (DLD-1 WT cells; Homo sapiens, DLD-1, 72 h): 4.19 µM
IC50 (Caco-2 cells; Caco-2, 72 h): 66.5 µM
γH2AX, mono-treatment [3]: slightly higher γH2AX levels

COC(=O)C1CC(=O)c2cccc3[nH]c(C)c1c23 (centres unmarked) [X17616]
IC50 (PARP-1 [4]): 9.2 µM and 9.17 µM

CNC(=O)C1CC(=O)c2cccc3[nH]c(C)c1c23 (centres unmarked) [X17618, N,2-dimethyl-5-oxo-1,3,4,5-tetrahydrobenzo[cd]indole-3-carboxamide]
decrease of viability (HCT116 BRCA2−/− cells; HCT116 BRCA2−/−, highest test concentration of 50 µM, 72 h): about 25%
IC50 (HCT116 BRCA2−/− cells; Homo sapiens, HCT-116, 72 h): > 50 µM
PARP-1 trapping (PARP-1 [5]): no effects were detected
cell viability, monotreatment (HCT116 PARP-1−/− cells; HCT116 PARP-1−/−, 72 h, up to 50 µM): Neither X17613 nor X17618 decreased cell viability
cell viability in combination with cytostatics (HCT116 PARP-1−/− cells; HCT116 PARP-1−/−, IT 0.5 µM, 5-FU 0.25 µM, OXA 0.5 µM, 72 h, PARPi added 2 h prior): did not affect the cytotoxicity of the anticancer drugs
IC50 (HCT116 PARP-1−/− cells; Homo sapiens, HCT-116, 72 h): > 50 µM
cell viability, monotreatment (DLD-1 ATRs/s cells; DLD-1 ATRs/s, 72 h): no effects
IC50 (DLD-1 ATRs/s cells; Homo sapiens, DLD-1, 72 h): > 50 µM
chromatin-bound PARP-1 (PARP-1 trapping) (PARP-1 [6]): No enrichment of PARP-1 in the chromatin fraction
cell viability, monotreatment (HCT116 PARP-1+/+ cells; HCT116 PARP-1+/+, 72 h, up to 50 µM): Neither X17613 nor X17618 decreased cell viability
cell viability in combination with cytostatics (HCT116 PARP-1+/+ cells; HCT116 PARP-1+/+, IT 0.5 µM, 5-FU 0.25 µM, OXA 0.5 µM, 72 h, PARPi added 2 h prior): did not affect the cytotoxicity of the anticancer drugs
IC50 (HCT116 PARP-1+/+ cells; Homo sapiens, HCT-116, 72 h): > 50 µM
cell viability, monotreatment (HCT116 WT cells; HCT116 WT, 72 h, up to 50 µM): no impact
IC50 (HCT116 WT cells; Homo sapiens, HCT-116, 72 h): > 50 µM
IC50 [7]: 0.00538 µM
PAR signal [7]: significant decrease in the PAR signal
IC50 ([1]; Homo sapiens, HCEC): > 50 µM
cell viability, monotreatment ([1]; nonmalignant HCEC, up to 50 µM): no effect on HCEC
cell viability, monotreatment (DLD-1 WT cells; DLD-1 WT, 72 h): no effects
IC50 (DLD-1 WT cells; Homo sapiens, DLD-1, 72 h): > 50 µM
cell viability, monotreatment (Caco-2 cells; Caco-2, 72 h, up to 50 µM): no impact on cell viability at all
sensitization towards the anticancer drugs (Caco-2 cells; Caco-2, IT 10 µM, 5-FU 5 µM, OXA 1 µM): no sensitization towards the anticancer drugs
IC50 (Caco-2 cells; Caco-2, 72 h): > 50 µM
IC50 (PARP-1 [4]): 2.84 µM

O=c1[nH]cc(F)c(=O)[nH]1 [5-FU, 5-fluorouracil]
IC50 (HCT116 BRCA2−/− cells; Homo sapiens, HCT-116, 72 h): 0.34 µM
IC50 (HCT116 PARP-1−/− cells; Homo sapiens, HCT-116, 72 h): 0.15 µM
higher sensitivity of HCT116 PARP-1−/− than PARP-1+/+ (HCT116 PARP-1−/− cells): less affected
IC50 (DLD-1 ATRs/s cells; Homo sapiens, DLD-1, 72 h): 0.22 µM
IC50 (HCT116 PARP-1+/+ cells; Homo sapiens, HCT-116, 72 h): 0.24 µM
IC50 (HCT116 WT cells; Homo sapiens, HCT-116, 72 h): 0.5 µM
IC50 ([1]; Homo sapiens, HCEC): 26.2 µM
IC50 (DLD-1 WT cells; Homo sapiens, DLD-1, 72 h): 0.35 µM
IC50-values Caco-2 (Caco-2 cells; 72 h, RRA): -

Cc1[nH]c2cccc3c2c1C(C(=O)N1CCOCC1)CC3=O (centres unmarked) [X17621, 2-methyl-3-(morpholine-4-carbonyl)-3,4-dihydrobenzo[cd]indol-5(1H)-one]
PAR formation [7]: did not entirely inhibit PAR formation
IC50 [7]: 0.0167 µM
PAR signal [7]: significant decrease in the PAR signal
IC50 (PARP-1 [4]): 1.63 µM

Cc1[nH]c2cccc3c2c1C(C(=O)NCc1ccco1)CC3=O (centres unmarked) [X17620, N-(furan-2-ylmethyl)-2-methyl-5-oxo-1,3,4,5-tetrahydrobenzo[cd]indole-3-carboxamide]
PAR formation [7]: no effect on PAR formation
IC50 (PARP-1 [4]): 0.482 µM

Source: paper PMC11506018, “Targeting PARP-1 and DNA Damage Response Defects in Colorectal Cancer Chemotherapy with Established and Novel PARP Inhibitors” (Cancers, 2024)
